From patent US20160318957A1, “CRYSTAL (1) OF PYRAZINO[2,1-c][1,2,4]TRIAZINE COMPOUND” (PRISM PHARMA CO., LTD., priority 2013, published 2016)

Experiments:
Assay type in all cases: physicochemical
[1] = Evaluation of solid stability (impurity content by HPLC after preservation); conditions: for impurity content (%): HPLC 226 nm
Protocol: The solid obtained in Example 1 or Comparative Example 1 was preserved for 3 months under the following 3 kinds of preservation conditions. The absorbance at wavelength 226 nm was measured by high performance liquid chromatography (HPLC), and the content of impurity contained in the crystal was measured every other month.
From the peak area of the obtained chromatogram, a value obtained by dividing the total area of respective peaks other than the peak showing compound 1, by the total area of all the obtained peaks, from the peaks contained in the above-mentioned solid, was taken as impurity content (%), and is shown in Table 5.

[2] = Evaluation of thermal stability by X-ray-DSC
Protocol: Using X-ray diffraction-differential scanning simultaneous calorimetry apparatus (X-ray-DSC), whether the crystal form of crystal A obtained in Example 1 changes upon heating was observed.
When the temperature was around 90° C., the weight of crystal A decreased, and the powder X-ray diffraction pattern changed clearly.

[3] = Hygroscopicity evaluation by dynamic water adsorption measuring apparatus; conditions: 25° C., relative humidity range of 35-75% RH
Protocol: The hygroscopicity of crystal A obtained in Example 1 was evaluated by a dynamic water adsorption measuring apparatus. A sample mounting part of the apparatus was maintained at 25° C., and the relative humidity (RH) was set stepwisely within the range of 5-95% RH. The humidity was controlled by changing the relative flow of 0% RH dry nitrogen and 100% RH humidified nitrogen. The sample weight was confirmed at for 2 min intervals by a micro balance, and the humidity was sequentially changed at the time point when the weight shift range for 5 min was below 0.01%.

[4] = Heating of crystal in an oven; conditions: oven at 50° C. overnight
Text: First, an amorphous form of compound 1 is explained. Compound 1 can be produced by synthesize according to the method described in patent document 1.

[5] = preserved at 40° C./75% RH, 1 month later
[6] = preserved at 40° C./75% RH, 2 months later
[7] = preserved at 40° C./75% RH, 3 months later
[8] = preserved at 60° C., 1 month later
[9] = preserved at 60° C., 2 months later
[10] = preserved at 60° C., 3 months later
[11] = preserved at −20° C., 1 month later
[12] = preserved at −20° C., 2 months later
[13] = preserved at −20° C., 3 months later
[14] = heated from 40° C. to 100° C. at 1° C./min

SMILES | increase in the impurity content as compared to preservation at −20° C. ([1]; 40° C., 75% RH, 3 months later) | increase in the impurity content as compared to preservation at −20° C. ([1]; 60° C., 3 months later) | impurity content (%) [1, 5] [%] | impurity content (%) [1, 6] [%] | impurity content (%) [1, 7] [%] | impurity content (%) [1, 8] [%] | impurity content (%) [1, 9] [%] | impurity content (%) [1, 10] [%] | impurity content (%) [1, 11] [%] | impurity content (%) [1, 12] [%] | impurity content (%) [1, 13] [%] | powder X-ray diffraction pattern at the endothermic peak (desorption of hydrated water) ([2]; 43° C.-48° C., heated at 1° C./min) | temperature at which weight decreased and powder X-ray diffraction pattern changed clearly [2, 14] | thermal stability [2, 14] | hygroscopicity [3] | weight change at the maximum [3] | solid stability compared with amorphous form ([1]; high temperature conditions and high humidity conditions, 3 months) | change of solid form on heating [4]
C[C@H]1C2N(C(=O)CN(C)N2C(=O)NCc2ccccc2)[C@@H](Cc2ccc(OP(=O)(O)O)cc2)C(=O)N1Cc1cccc2cccnc12 (stereo partly drawn) [Comparative Example 1, 4-(((6S,9S)-1-(benzylcarbamoyl)-2,9-dimethyl-4,7-dioxo-8-(quinolin-8-ylmethyl)octahydro-1H-pyrazino[2,1-c][1,2,4]triazin-6-yl)methyl)phenyl dihydrogen phosphate] | about 4% | not less than 1.1% | 3.35 | 4.62 | 6.51 | 3.10 | 3.41 | 3.68 | 2.46 | 2.60 | 2.57 |  |  |  |  |  |  | 
C[C@H]1C2N(C(=O)CN(C)N2C(=O)NCc2ccccc2)[C@@H](Cc2ccc(OP(=O)(O)O)cc2)C(=O)N1Cc1cccc2cccnc12 (stereo partly drawn) [Example 1, 4-(((6S,9S)-1-(benzylcarbamoyl)-2,9-dimethyl-4,7-dioxo-8-(quinolin-8-ylmethyl)octahydro-1H-pyrazino[2,1-c][1,2,4]triazin-6-yl)methyl)phenyl dihydrogen phosphate] | about 1.6% | not more than 0.5% | 0.65 | 1.02 | 1.80 | 0.53 | 0.59 | 0.72 | 0.24 | 0.17 | 0.24 | did not change | around 90 °C | thermally stable | low hygroscopicity | about 2.5% | more stable than the amorphous form of Comparative Example 1 | 
C[C@H]1C2N(C(=O)CN(C)N2C(=O)NCc2ccccc2)[C@@H](Cc2ccc(OP(=O)(O)O)cc2)C(=O)N1Cc1cccc2cccnc12 (stereo partly drawn) [Example 2, 4-(((6S,9S)-1-(benzylcarbamoyl)-2,9-dimethyl-4,7-dioxo-8-(quinolin-8-ylmethyl)octahydro-1H-pyrazino[2,1-c][1,2,4]triazin-6-yl)methyl)phenyl dihydrogen phosphate] |  |  |  |  |  |  |  |  |  |  |  |  |  |  |  |  |  | changes into an amorphous form
